Experimental findings from PMC12068008 (International Journal of Molecular Sciences, 2024) are described below.

In general, IC50 refers to the concentration needed to halve the response being measured. High values mean weaker potency, low ones greater potency.

For this experiment, the target named is Na^+, K^+-ATPase. Briefly: Na+,K+-ATPase assay (orthophosphate release). It is filed as biochemical, porcine. The method, then: Na^+, K^+-ATPase activity was assessed using a modified version of the method by Seals et al., based on measuring the change in orthophosphate concentration released during ATP hydrolysis. The incubation mixture was prepared at 50 mM TRIS-HCl (pH 7.4), containing 5 mM MgCl2, 100 mM NaCl, 20 mM KCl, 25 μL of 5mg/mL commercial enzyme solution, and 20 μL of an inhibitor solution at a certain concentration. After preincubating the mixture for 10 min at 37 °C, the reaction was initiated by adding 20 μL of 20 mM ATP. The reaction proceeded for 10 min at 37 °C before being terminated by adding 22 μL of 3 M cold perchloric acid, with the tube then placed on ice. In the blank sample, the incubation mixture contained only TRIS buffer (pH 7.4) without MgCl2, NaCl, or KCl. The reaction volume was adjusted to a final volume of 200 μL, after which 4.5 mL of water was added. Released orthophosphate was quantified using a colorimetric reaction with 200 μL of 0.2 M ammonium molybdate in 30% sulfuric acid and one drop of 2.5% SnCl2 in glycerol. Total ATPase activity was determined by measuring the absorbance of solution at 690 nm. Enzyme activity was expressed as relative enzyme activity (REA), defined as the percentage of Na^+, K^+-ATPase activity remaining in comparison to samples without inhibitor (control activity).

Under “37 °C”, `COc1cc2c(cc1OC)CN(Cc1c(O)cc(O)c3c(=O)c(O)c(-c4ccc(O)c(O)c4)oc13)CC2` [Compound 2b] registered an IC50 of 970 nM. Also, the “Percentage Inhibition Na^+, K^+-ATPase” value (at 1 × 10^−4 M, 37 °C) came out at 100%. For the same molecule, the “fold decrease in IC50 toward Na^+, K^+-ATPase compared to bare quercetin” value (versus quercetin) is given as 50 fold.
